Data as given in patent US20260108483A1, “METHODS AND COMPOSITIONS FOR PREVENTING THE PROGRESSION OF DIABETIC RETINOPATHY AND RELATED CONDITIONS” (Opus Genetics, Inc., priority 2023, published 2026).

Experiments:
[1] = Clinical study safety: heart rate; format: in vivo, human; conditions: combined placebo + Compound 1 patients; for Mean Heart Rate: Baseline 76.7
Source text: (§1) The study was configured as a placebo-controlled, double-masked, randomized, Phase 2 study in approximately 100 subjects with moderately severe to severe NPDR (diabetic retinopathy severity score [DRSS] Level 47 or 53, see FIG. 1) or mild PDR (DRSS Level 61), evaluating safety and efficacy following administration of Compound 1 twice daily for 24 weeks. The study was configured for a 1:1 randomization (placebo: Compound 1). Randomization was stratified by level of disease severity (NPDR or PDR). Subjects with mild PDR were capped at 20% for each arm. Efficacy evaluations at 12 and/or 24 weeks included DRSS, center-involved diabetic macular edema (DME), moderate PDR or PDR-related adverse events (AEs), best-corrected visual acuity (BCVA), and central subfield thickness (CST). Further experimental procedures and results are described below.
(§2) At the Qualification/Baseline (Visit 2, Day 1): • The subject was randomized into the study. • Study medication was dispensed in accordance with the subjects randomized treatment arm. • Blood samples were drawn pre-dose for baseline levels and on Visit 9 (Week 24) for exploratory biomarker processing (i.e., cytokine and Ref-1 levels) to evaluate pharmacodynamic properties. • Subjects were instructed to administer their study medication (Compound 1 or placebo) each day, with 3 tablets every morning and 2 tablets every evening. Study medication was to be taken at approximately the same time each day and may be taken with or without food.
At the Second Treatment Visit (Visit 6, Week 12±2 Days), subjects were to return to the site for the following series of safety and efficacy assessments: drug accountability, concomitant medications, urine pregnancy test (only for women of childbearing potential), HR/BP/vital signs, BCVA (ETDRS), DRSS, CST (SD-OCT), blood draw for PK, blood chemistry, blood hematology, biomicroscopy, ophthalmoscopy, IOP, eGFR, and AEs. Following the completion of the assessments, used medication kits were collected for accountability (by counting the number of unused tablets), and new study medication kits dispensed.
At the Third Treatment Visit (Visit 9, Week 24±2 Days), subjects were to return to the site for the following series of safety and efficacy assessments: drug accountability, concomitant medications, urine pregnancy test (only for women of childbearing potential), physical examination, HR/BP/vital signs, BCVA (ETDRS), DRSS, CST (SD-OCT), blood chemistry, blood hematology, biomicroscopy, ophthalmoscopy, IOP, eGFR, AEs, and blood draw for exploratory biomarkers (ELISA, cytokine panel, comprehensive metabolic panel). Visit 9 (Week 24) was the end of the treatment period. Study medication was returned for accountability (by counting the number of unused tablets), and no further study medication dispensed.
Safety endpoints include: • Incidence and severity of systemic and ocular AEs, • Change from baseline in body system assessments, • Change from baseline in vital sign measurements, • Change from baseline in clinical laboratory assay results (blood chemistry, hematology), • Change from baseline in intraocular pressure (IOP), • Change from baseline in slit-lamp examination parameters, • Change from baseline in dilated funduscopic examination parameters, • Percent of subjects with a decrease of ≥10 letters in BCVA compared to baseline at Week 12 and Week 24, • Percent of subjects progressing to center-involved DME (eligible for rescue treatment at Week 12 and Week 24), • Percent of subjects with a worsening in DRSS of ≥2 steps in the study eye at Week 12 and Week 24, • Percent of subjects developing anterior segment neovascularization at Week 12 and Week 24, • Percent of subjects rescued (intravitreal anti-VEGF injection, laser PRP, focal/grid laser treatment, or surgery [vitrectomy]) at the discretion of the Investigator at Week 12 and Week 24, and • Change from baseline in estimated glomerular filtration rate (eGFR) at Week 12 and Week 24. […]

[2] = Clinical study safety: treatment-emergent adverse events; format: in vivo, human
Source text: as §1, §2
Safety endpoints include: • Incidence and severity of systemic and ocular AEs, • Change from baseline in body system assessments, • Change from baseline in vital sign measurements, • Change from baseline in clinical laboratory assay results (blood chemistry, hematology), • Change from baseline in intraocular pressure (IOP), • Change from baseline in slit-lamp examination parameters, • Change from baseline in dilated funduscopic examination parameters, • Percent of subjects with a decrease of ≥10 letters in BCVA compared to baseline at Week 12 and Week 24, • Percent of subjects progressing to center-involved DME (eligible for rescue treatment at Week 12 and Week 24), • Percent of subjects with a worsening in DRSS of ≥2 steps in the study eye at Week 12 and Week 24, • Percent of subjects developing anterior segment neovascularization at Week 12 and Week 24, • Percent of subjects rescued (intravitreal anti-VEGF injection, laser PRP, focal/grid laser treatment, or surgery [vitrectomy]) at the discretion of the Investigator at Week 12 and Week 24, and • Change from baseline in estimated glomerular filtration rate (eGFR) at Week 12 and Week 24.
Analysis populations included: • Modified Intention-to-Treat (mITT): The mITT includes all randomized subjects who received at least one dose of study treatment and at least one post-dose efficacy measurement. […] The PP population will be used for primary endpoint analysis and to analyze efficacy endpoints. • All Randomized Population (ARP): The ARP includes all randomized subjects. This population is also known as the Intent-to-Treat (ITT) population. The ARP will be used in confirmatory efficacy analyses. • Safety Population (SP): The SP includes all randomized subjects who have received at least one dose of study treatment. The SP was used to summarize safety variables.
Provided below is data on safety on Compound 1 orally administered to patients according to the study protocol described herein. The data is from one-hundred patients that were enrolled in the trial. Per the study protocol described above, patients enrolled in the study were randomized 1:1 for receipt of placebo versus Compound 1. The safety data below is the combined results from patients that received placebo and those received Compound 1.
Table 9 below provides a summary of occurrence of adverse events across 100 subjects enrolled in the study, which is the combined results from patients that received placebo and those that received Compound 1. […]

[3] = 100 subjects, combined placebo + Compound 1, bilateral ocular events counted twice
[4] = 100 subjects, combined placebo + Compound 1 patients

CCCCCCCCC/C(=C\C1=C(C)C(=O)C(OC)=C(OC)C1=O)C(=O)O [Compound 1, (E)-2-((4,5-dimethoxy-2-methyl-3,6-dioxocyclohexa-1,4-dien-1-yl)methylene)undecanoic acid]
Mean Heart Rate ([1]; Week 12, 62 subjects): 76.3 beats/min | Mean Heart Rate ([1]; Week 24, 27 subjects): 80.7 beats/min | change in mean heart rate relative to Baseline ([1]; week 12, 62 subjects): +0.9 beats/min | increase in mean heart rate relative to Baseline ([1]; week 12, 62 subjects): 1% | change in mean heart rate relative to Baseline ([1]; week 24, 27 subjects): +4.3 beats/min | increase in mean heart rate relative to Baseline ([1]; week 24, 27 subjects): 6% | No. of Subjects That Experienced a Treatment-Emergent Adverse the Category: Anterior (eye disorder) [2, 3]: 5 | No. of Subjects That Experienced a Treatment-Emergent Adverse the Category: Posterior (eye disorder) [2, 3]: 9 | No. of Subjects That Experienced a Treatment-Emergent Adverse the Category: Blood or lymphatic system disorder [2, 4]: 1 | No. of Subjects That Experienced a Treatment-Emergent Adverse the Category: Cardiac disorder [2, 4]: 1 | No. of Subjects That Experienced a Treatment-Emergent Adverse the Category: Ear or labyrinth disorder [2, 4]: 1 | No. of Subjects That Experienced a Treatment-Emergent Adverse the Category: Eye disorder [2, 4]: 9 | No. of Subjects That Experienced a Treatment-Emergent Adverse the Category: Gastrointestinal disorder [2, 4]: 9 | No. of Subjects That Experienced a Treatment-Emergent Adverse the Category: General disorders or administration site condition [2, 4]: 1 | No. of Subjects That Experienced a Treatment-Emergent Adverse the Category: Hepatobiliary disorder [2, 4]: 1 | No. of Subjects That Experienced a Treatment-Emergent Adverse the Category: Infection or infestation [2, 4]: 9 | No. of Subjects That Experienced a Treatment-Emergent Adverse the Category: Injury, poisoning, or procedural complication [2, 4]: 1 | No. of Subjects That Experienced a Treatment-Emergent Adverse the Category: Investigation [2, 4]: 3 | No. of Subjects That Experienced a Treatment-Emergent Adverse the Category: Metabolism or nutrition disorder [2, 4]: 1 | No. of Subjects That Experienced a Treatment-Emergent Adverse the Category: Musculoskeletal and connective tissue disorder [2, 4]: 5 | No. of Subjects That Experienced a Treatment-Emergent Adverse the Category: Nervous system disorder [2, 4]: 7 | No. of Subjects That Experienced a Treatment-Emergent Adverse the Category: Not coded [2, 4]: 4 | No. of Subjects That Experienced a Treatment-Emergent Adverse the Category: Psychiatric disorder [2, 4]: 2 | No. of Subjects That Experienced a Treatment-Emergent Adverse the Category: Reproductive system or breast disorder [2, 4]: 1 | No. of Subjects That Experienced a Treatment-Emergent Adverse the Category: Respiratory, thoracic, or mediastinal disorder [2, 4]: 2 | No. of Subjects That Experienced a Treatment-Emergent Adverse the Category: Skin and subcutaneous tissue disorder [2, 4]: 7 | No. of Subjects That Experienced a Treatment-Emergent Adverse the Category: Vascular disorder [2, 4]: 1 | safety profile ([2]; administered according to study protocol, 600 mg/day oral, 24 weeks): good safety profile | total treatment-emergent adverse events observed ([2]; from 100 subjects, combined placebo + Compound 1 patients): 83 | subjects reporting at least one treatment-emergent adverse event ([2]; of 100 subjects, combined placebo + Compound 1 patients): 41
